Assays:
[1] = test system: root-knot nematode, Meloidogyne incognita var. acrita; experiment: Nematocide Test; further: key: 1: severe galling, equal to untreated plants; 2: moderate galling; 3: light galling; 4: very light galling; 5: no galling, perfect control; assay type: in vivo; settings: 3.33 m.g. per jar; cucumber, approximately 3 weeks
Method: The test organism used was the infective migratory larvae of the root-knot nematode, Meloidogyne incognita var. acrita, reared in the greenhouse on roots of cucumber plants. Infected plants were removed from the culture, and the roots are chopped very finely. A small amount of this inoculum was added to a pint jar containing approximately 180 cc. of soil. The jars were capped and incubated for one week at room temperature. During this period eggs of the nematode were hatched, and the larval forms migrated into the soil.
Ten ml. of the test formulation were added to each of the two jars for each dosage tested. Following the addition of chemical, the jars were capped, and the contents thoroughly mixed on a ball mill for 5 minutes.
The test compounds were formulated by a standard procedure of solution in acetone addition of an emulsifier, and dilution with water. Primary screening tests were conducted at 3.33 m.g. of the test compound per jar.
The jars were left capped at room temperature for a period of 48 hours, and the contents then transferred to 3 inch pots. Subsequently, the pots were seeded to cucumber as an indicator crop and placed in the greenhouse where they were cared for in the normal fashion for approximately 3 weeks.
The cucumber plants were then taken from the pots, the soil removed from the roots; and the amount of galling visually rated.
In the test for activity against nematodes (nem) activity was rated as follows: […]

[2] = Mammalian Toxicity, peroral toxicity to rat; assay type: in vivo; settings: in vivo, po, read-out: A.O. Rat LD50
Method: Certain compounds were also evaluated to determine their peroral toxicity to mammals by conventional methods. The representative animal selected for this experiment was the rat.

Soy = experiment: Phytotoxicity Test, soy; settings: 2500 ppm spray, ten days
Method: (§1) Experiments were also conducted to determine the phytotoxicity of representative compounds with respect to healthy fresh plants. […] The test plants were sprayed in accordance with the procedure described above for the Mite Foliage Spray Test so as to deliver approximately 100 milliliters of test solution to the leaves of each plant tested. The sprayed plants and controls were set aside for approximately one hour to allow the foliage to dry and were then placed in the greenhouse. After ten days the plants were visually inspected to determine the extent of foliage injury. A rating of 1 indicates no perceptible injury; 5 indicates the plant was dead and ratings of 2, 3 and 4 indicate intermediate degrees of injury based upon the number and extent to which leaves were injured.

Bean = experiment: Phytotoxicity Test, bean; settings: 2500 ppm spray, ten days
Method: as §1

Corn = experiment: Phytotoxicity Test, corn; settings: 2500 ppm spray, ten days
Method: as §1

Tom = experiment: Phytotoxicity Test, tomato; settings: 2500 ppm spray, ten days
Method: as §1

Cotton = experiment: Phytotoxicity Test, cotton; settings: 2500 ppm spray, ten days
Method: as §1

Structure (SMILES) | Biological Activity: Nem (nematode, galling rating) [1] | LD50 [2] | Phytotoxicity: Soy (Soy) | Phytotoxicity: Bean (Bean) | Phytotoxicity: Corn (Corn) | Phytotoxicity: Tom (Tom) | Phytotoxicity: Cotton (Cotton)
COC(=O)Nc1ccc(OC(=O)N(C)SN(C)C(=O)ON=C(C)SC)cc1C(C)C [XVI, N-[1-Methylthioacetaldehyde O-(N-methylcarbamoyl)oxime]N-[4-methoxycarbonylamino-(N-methylcarbamate)-3-isopropylphenyl]sulfide] | 4 | 28.3 mg/kg | 1 | 1 | 1 | 1 | 1
CN(SN(C)C(=O)ON=C1SC(C)(C)C(=O)N1C)C(=O)ON=C1CSCCS1 [Example III, N-[2-(O-(N-methylcarbamoyl)oximino]-1,4-dithiane]-N-[2-O-(N-methylcarbamoyl)oximino-3,5,5-trimethylthiazolidin-4-one]sulfide] | 1 | 160 mg/kg | 2 | 1 | 2 | 1 | 2
CSC(C)=NOC(=O)N(C)SN(C)C(=O)Oc1cccc2ccccc12 [VII, N-[1-Methylthioacetaldehyde O-(N-methylcarbamoyl)oxime]N-[1-naphthylmethylcarbamate]sulfide] | 4 | 160 mg/kg | 2 | 1 | 1 | 1 | 2
CSC(C)=NOC(=O)N(C)SN(C)C(=O)Oc1ccc([N+](=O)[O-])cc1 [XII, N-[1-Methylthioacetaldehyde O-(N-methylcarbamoyl)oxime]N-[1-(N-methylcarbamoyloxy)-4-nitrobenzene]sulfide] | 1 | 453 mg/kg | 1 | 1 | 1 | 1 | 1
CSC(C)=NOC(=O)N(C)SN(C)C(=O)Oc1ccc(C(C)C)cc1 [VIII, N-[1-Methylthioacetaldehyde O-(N-methylcarbamoyl)oxime]N-[4-isopropylphenyl-(N-methylcarbamoyloxy)]sulfide] | 4 | 160 mg/kg | 1 | 1 | 1 | 1 | 1
CSC(C)=NOC(=O)N(C)SN(C)C(=O)Oc1ccccc1C1SCCS1 [XXXVI] | 4 | 50.4 mg/kg | 1 | 1 | 1 | 1 | 1
CCOC(=O)C(=NOC(=O)N(C)SN(C)C(=O)ON=C(C)SC)SC [XIII, N-[1-Methylthioacetaldehyde O-(N-methylcarbamoyl)oxime]N-[1-methylthio-1-ethoxycarbonylformaldehyde O-(N-methylcarbamoyl)oxime]sulfide] | 3 | 160 mg/kg | 2 | 1 | 1 | 1 | 1
CSC(C)=NOC(=O)N(C)SN(C)C(=O)Oc1cccc2c1OC(C)(C)C2 [Example V, N-[1-Methylthioacetaldehyde O-(N-methylcarbamoyl)oxime]N-[2,2-dimethyl-2,3-dihydro-7-(N-methylcarbamoyloxy)benzofuran]sulfide] | 5 | 15.9 mg/kg | 2 | 2 | 1 | 2 | 2
CSC(C)=NOC(=O)N(C)SN(C)C(=O)Oc1cc(C)c(C)c(C)c1 [XVIII, N-[1-Methylthioacetaldehyde O-(N-methylcarbamoyl)oxime]N-[3,4,5-trimethylphenyl-(N-methylcarbamoyloxy)]sulfide] | 4 | 95.1 mg/kg | 1 | 1 | 1 | 1 | 1
CSC(C)=NOC(=O)N(C)SN(C)C(=O)ON=CC(C)(C)SC [Example I, N-[2-Methylthio-2-methylpropionaldehyde O-(N-methylcarbamoyl)oxime]N-[1-methylthioacetaldehyde O-(N-methylcarbamoyl)oxime]sulfide] | 5 | 2.1 mg/kg | 1 | 2 | 1 | 1 | 2
CSC(C)=NOC(=O)N(C)SN(C)C(=O)Oc1cccc2c1CCCC2 [XIV, N-[1-Methylthioacetaldehyde O-(N-methylcarbamoyl)oxime]N-[1-(N-methylcarbamoyloxy)-5,6,7,8-tetrahydronaphthalene]sulfide] | 4 | 285 mg/kg | 1 | 1 | 1 | 1 | 1
CCCCCCCCCc1ccc(OC(=O)N(C)SN(C)C(=O)ON=C(C)SC)cc1 [XXXI] | 5 | > 640 mg/kg | 1 | 1 | 1 | 1 | 1
CSC(C)=NOC(=O)N(C)SN(C)C(=O)ON=C(C)SCCC#N [X] | 1 | 67.3 mg/kg | 1 | 1 | 1 | 1 | 2
CSC(C)=NOC(=O)N(C)SN(C)C(=O)Oc1ccc(SC)c(C)c1 [XV, N-[1-Methylthioacetaldehyde O-(N-methylcarbamoyl)oxime]N-[O-(N-methylcarbamoyl)-4-methylthio-3-methylphenyl]sulfide] | 4 | 40 mg/kg | 1 | 1 | 1 | 1 | 1
CN(SN(C)C(=O)Oc1cccc2ccccc12)C(=O)ON=C1CSCCS1 [XXII, N-[2-O-(N-methylcarbamoyl)oximino-1,4-dithiane]N-[1-naphthyl-(N-methylcarbamoyloxy)]sulfide] | 4 | 453 mg/kg | 2 | 1 | 1 | 1 | 1
CSC(C)=NOC(=O)N(C)SN(C)C(=O)Oc1ccc(C(C)(C)C)cc1 [IX, N-[1-Methylthioacetaldehyde O-(N-methylcarbamoyl)oxime]N-[4-tert-butylphenyl-(N-methylcarbamoyloxy)]sulfide] | 3 | 226 mg/kg | 1 | 1 | 1 | 1 | 1
CSC(C)(C)C=NOC(=O)N(C)SN(C)C(=O)Oc1cccc2ccccc12 [Example VI, N-[2-Methylthio-2-methylpropionaldehyde O-(N-methylcarbamoyl)oxime]N-[1-(N-methylcarbamoyloxy)naphthalene]sulfide] | 4 | 2.97 mg/kg | 1 | 1 | 1 | 1 | 1
